These are literature values, as cited in the PKSmart pharmacokinetics tables (Seal et al. 2025).

As a reminder, the Vd is the apparent volume that relates the amount in the body to the concentration in plasma or blood. The clearance is the volume of plasma or blood freed of the substance per unit of time. By fraction unbound is commonly meant free concentration divided by total concentration. The MRT is a mean duration of stay, worked out from the concentration-time curve. Usually half-life stands for the time needed for the level to fall by half in the phase considered.

The nature of data set [1]: Lombardo et al. 2013, J Clin Pharmacol 53:178, doi 10.1177/0091270012440282. Conditions: for Vd / clearance: in vivo, iv; for fraction unbound: plasma.
The nature of data set [2]: Lombardo, Berellini, Obach 2018, Drug Metab Dispos 46:1466, doi 10.1124/dmd.118.082966. The settings on record: human; for MRT / Vd / clearance / half-life: in vivo, iv; for fraction unbound: plasma.

On to `Oc1ccc2c(c1)[C@]13CCCC[C@@]1(O)[C@H](C2)N(CC1CCC1)CC3`, for which, in data set [1] (dog), the distribution volume (Vd) is 8.4 L/kg, the clearance is 58 mL/min/kg and the fraction unbound was 0.369. Also, in data set [1] (rat), the Vd is 4.8 L/kg, the clearance was 91.2 mL/min/kg and the free fraction (fraction unbound) was 0.34.
On to `COCCc1ccc(OCC(O)CNC(C)C)cc1` (centres undefined), for which, in data set [1] (dog), the unbound share (fraction unbound) is 0.756. In data set [1] (monkey), the distribution volume (Vd) is 14 L/kg, the clearance is 21.9 mL/min/kg and the fraction unbound was 0.825. Moreover, in data set [1] (rat), the Vd was 6.3 L/kg, the clearance was 87.2 mL/min/kg and the fraction unbound was 0.69.
In the case of `O=C(CCCCCCC(O)=NO)Nc1ccccc1`, the fraction unbound in data set [1] (dog) is 0.458. Moreover, in data set [1] (rat), the Vd is 1.6 L/kg and the clearance is 130 mL/min/kg.
In the case of `[H]/N=C(\N)c1ccc(CNC(=O)C2CCN2C(=O)C(NCC(=O)O)C2CCCCC2)cc1` (centres undefined), in data set [1] (dog), the Vd is 0.36 L/kg, the clearance was 7 mL/min/kg and the fraction unbound was 0.89. Moreover, in data set [1] (rat), the Vd is 0.39 L/kg, the clearance was 16.9 mL/min/kg and the fraction unbound is 0.9.
As to `CC(=O)N[C@H]1[C@H]([C@H](O)[C@H](O)CO)OC(C(=O)O)=C[C@@H]1N=C(N)N`, in data set [1] (rat), the Vd is 0.8 L/kg and the clearance was 31.7 mL/min/kg.
`CC(=O)Nc1ccc(O)cc1`: the fraction unbound in data set [1] (rat) is 0.27.
On to `Cn1c(=O)c2[nH]cnc2n(C)c1=O`, for which the Vd in data set [1] (dog) is 0.68 L/kg; in data set [1] (monkey) it was 0.69 L/kg. The values for the clearance in data set [1] (dog), in data set [1] (monkey) and in data set [1] (rat) were 1.8 mL/min/kg, 3.8 mL/min/kg and 2.25 mL/min/kg, respectively.
Valproic Acd: the values for the Vd in data set [1] (dog), in data set [1] (monkey) and in data set [1] (rat) were 0.33 L/kg, 0.25 L/kg and 0.66 L/kg, respectively. The clearance in data set [1] (dog) is 3.03 mL/min/kg; in data set [1] (monkey), 4.2 mL/min/kg; in data set [1] (rat), 4.2 mL/min/kg. In addition, the fraction unbound in data set [1] (dog) was 0.215; in data set [1] (monkey), 0.22; in data set [1] (rat), 0.366.
Take `OC(CCN1CCCCC1)(c1ccccc1)C1CC2C=CC1C2` (centres undefined): in data set [1] (dog), the distribution volume (Vd) was 9.7 L/kg, the clearance is 27 mL/min/kg and the fraction unbound is 0.19. Moreover, the fraction unbound in data set [1] (rat) is 0.31.
Regarding `O=c1nc[nH]c2c1ncn2[C@H]1CC[C@@H](CO)O1`, the Vd in data set [1] (dog) was 0.96 L/kg; in data set [1] (monkey) it was 1.3 L/kg; in data set [1] (rat), 1.3 L/kg. Also, the clearance is 25.3 mL/min/kg in data set [1] (dog), 27.2 mL/min/kg in data set [1] (monkey) and 150 mL/min/kg in data set [1] (rat).
Take `CCC[C@@H]1CC(C(=O)N[C@@H]([C@H]2O[C@H](SC)[C@H](O)[C@@H](O)[C@H]2O)[C@H](C)Cl)N(C)C1` (some centres undefined): the results for the fraction unbound in data set [1] (dog) and in data set [1] (rat) were 0.035 and 0.325, respectively.
Turning to `CC1C(=O)O[C@H]2C[C@@]34[C@H]5C[C@@H](C(C)(C)C)[C@@]36C(O)C(=O)O[C@H]6O[C@@]4(C(=O)O5)[C@@]12O` (some centres undefined), in data set [1] (rat), the distribution volume (Vd) was 4.3 L/kg and the clearance was 65 mL/min/kg.
On to `CCCCC[C@H](O)CC[C@@H]1[C@H]2Cc3cccc(OCC(=O)O)c3C[C@H]2C[C@H]1O`, for which, in data set [1] (dog), the Vd was 0.11 L/kg and the clearance is 35.8 mL/min/kg.
`CN(c1nc2ccccc2s1)C1CCN(CC(O)COc2ccc(F)cc2)CC1` (centres undefined): in data set [1] (rat), the Vd was 5.8 L/kg, the clearance was 35.9 mL/min/kg and the fraction unbound is 0.016.
Consider `C[C@@H](O)C1C(=O)N2C(C(=O)O)=C(S[C@H]3CC(C(=O)N4CC[C@H](NC(=O)CN=C(N)N)C4)N(C)C3)[C@H](C)[C@H]12` (some centres undefined), for which the distribution volume (Vd) in data set [1] (dog) is 0.25 L/kg; in data set [1] (monkey), 0.18 L/kg; in data set [1] (rat), 0.2 L/kg. Besides, the clearance was 3.96 mL/min/kg in data set [1] (dog), 1.7 mL/min/kg in data set [1] (monkey) and 15.7 mL/min/kg in data set [1] (rat). The unbound share (fraction unbound) in data set [1] (dog) is 0.928; in data set [1] (monkey) it was 0.85; in data set [1] (rat), 0.95.
With `COC1CC(OC2C(C)C(=O)OC(C)C(C)C(O)C(C)C(=O)C3(CO3)CC(C)C(OC3OC(C)CC(N(C)C)C3O)C2C)OC(C)C1O` (centres undefined), in data set [1] (dog), the Vd is 1.6 L/kg, the clearance is 12 mL/min/kg and the fraction unbound is 0.13. Further, in data set [1] (rat), the Vd was 6.8 L/kg, the clearance is 51 mL/min/kg and the fraction unbound was 0.46.
Regarding `O=C(/C=C/c1ccc(O)c(O)c1)O[C@@H]1C[C@](OC(=O)/C=C/c2ccc(O)c(O)c2)(C(=O)O)C[C@@H](O)[C@H]1O`, in data set [2], the MRT is 1.5 h, the distribution volume (Vd) was 0.79 L/kg, the clearance was 8.7 mL/min/kg and the half-life is 1.37 h.
`COc1cccc2c1C(=N)c1c(O)c3c(c(O)c1C2=O)C[C@@](O)(C(=O)CO)C[C@@H]3O[C@H]1C[C@H](N)[C@H](O)[C@H](C)O1`: in data set [2], the mean residence time (MRT) is 17.2 h, the Vd was 15.4 L/kg, the clearance is 15 mL/min/kg and the half-life was 13.8 h.
For `CCCCCN(C)CCC(O)(P(=O)(O)O)P(=O)(O)O`, in data set [2], the MRT was 5.1 h, the Vd is 0.55 L/kg, the clearance was 1.8 mL/min/kg and the half-life is 14 h. Besides, the fraction unbound in data set [2] is 0.15.
For `CC(C)(C)[C@]1(O)C[C@@H]2OC(=O)C[C@@]23C(=O)O[C@@H]2OC(=O)C(O)[C@]213` (some centres undefined), in data set [1] (rat), the Vd is 10 L/kg and the clearance was 140 mL/min/kg.
On to `CN(C)C1CCN(C(=O)c2ccc(NC(=O)Nc3ccc(-c4nc(N5CCOCC5)nc(N5CCOCC5)n4)cc3)cc2)CC1`, for which, in data set [2], the MRT was 17.6 h, the Vd is 2.39 L/kg, the clearance is 2.25 mL/min/kg and the half-life is 35.8 h.
In the case of `CCCCCCCCCC=CCCC(=O)N=CC(=O)N[C@@H]1[C@@H](O)[C@@H](O)[C@@H](Nc2[nH]cnc3ncnc2-3)O[C@H]1[C@@H](O)CO`, in data set [2], the MRT was 1.1 h, the Vd was 0.17 L/kg, the clearance was 2.7 mL/min/kg and the half-life was 1.3 h.
Take `C[C@@H]1CCN(C(=O)CC#N)C[C@@H]1N(C)c1ncnc2[nH]ccc12`: in data set [2], the MRT was 3.5 h, the volume of distribution (Vd) was 1.24 L/kg, the clearance is 5.88 mL/min/kg and the fraction unbound was 0.6.
In the case of `CC[C@H]1CN2CC[C@H]1C[C@@H]2[C@@H](O)c1ccnc2ccc(OC)cc12`, in data set [2], the MRT is 11 h, the Vd was 2.8 L/kg, the clearance was 4.2 mL/min/kg and the half-life is 5.7 h. Further, the unbound share (fraction unbound) in data set [2] was 0.22.
For the compound `CN(C)[C@@H]1C(O)=C(C(N)=O)C(=O)[C@@]2(O)C(O)=C3C(=O)c4c(O)ccc(Cl)c4[C@@](C)(O)[C@H]3C[C@@H]12`, in data set [2], the MRT was 7.4 h, the Vd is 0.9 L/kg, the clearance is 2 mL/min/kg and the half-life is 7 h.
With `[H]/N=C(\N)c1ccc(C(=O)NC(Cc2ccc(O)cc2)C(=O)N2CCC(OCC(=O)O)CC2)cc1` (centres undefined), the figures for the Vd in data set [1] (dog), in data set [1] (monkey) and in data set [1] (rat) were 0.75 L/kg, 0.29 L/kg and 0.24 L/kg, respectively.
Regarding `CC(=O)Oc1ccc2c3c1O[C@H]1[C@@H](OC(C)=O)C=C[C@H]4[C@@H](C2)N(C)CC[C@@]341`, in data set [2], the MRT is 0.1 h, the Vd was 1.31 L/kg, the clearance is 212 mL/min/kg and the half-life was 0.062 h.
As to `CN(C)CCCNC(=O)/C(=C/CCCCC(O)=NO)COc1cccc2ccccc12`, in data set [2], the MRT is 4.1 h, the Vd was 0.45 L/kg, the clearance was 1.82 mL/min/kg and the half-life is 2.1 h.
As for `CCN(CC)CCNC(=O)c1cc(Cl)c(N)cc1OC(C)C(C)=O` (centres undefined), in data set [2], the MRT was 2.68 h, the Vd is 1.5 L/kg, the clearance was 9.32 mL/min/kg and the half-life is 2.7 h. Besides, in data set [2], the unbound share (fraction unbound) is 0.46.
Consider `COc1cc2c(cc1OC)CN(c1cc(N)c3cc(OC)c(OC)cc3n1)CC2`, for which, in data set [2], the MRT is 7.6 h, the Vd is 6.3 L/kg, the clearance was 14 mL/min/kg and the half-life is 5.9 h.
